Data as given in patent publication US8188046B2, “Amyloid beta peptides and methods of use” (University of South Florida, priority 2006, dated 2012).

Legend:
BALB/c mice [1] = assay: Mouse anti-Abeta IgG isotyping (Th1/Th2 response); assay type: in vivo; conditions: n=4; for Anti-Abeta antibody isotype: peptide vaccination without adjuvant
Source text: To further confirm the inflammation issue, we detected type one and type two T cell response by using the mouse anti-Abeta IgG isotyping method. […] (see FIG. 10).

mice = assay: T cell epitope mapping: antibody production after vaccination with DCs treated with Abeta fragments (FIG. 11); assay type: in vivo, mouse; conditions: two vaccinations with DCs, 1×10^6 cells/mice, treated with 20 μg/million cell; ELISA 1:800 dilutions
Source text: FIG. 11. Mapping result of T cell epitope with Abeta fragment carrying Dutch mutation by ELISA.

BALB/c mice [2] = assay: Antibody titer by ELISA after adjuvant-free subcutaneous Abeta peptide vaccination; assay type: in vivo, mouse; conditions: boost 50 ug/mice six months post third inoculation; ELISA 10 days later; no adjuvant
Description: Peptides: Aβ 1-42 and related peptides were obtained from Synpep (Dublin, Calif.). Peptides for vaccination were reconstituted to 10 mg/ml in DMSO and further diluted to 2 mg/ml with phosphate buffered saline.
Mice: 10 weeks old female BALB/c mice from the Jackson laboratories were housed in Varian standard cages including amber igloos and vaccinated when 14 weeks old. A total of 28 mice were grouped into 7 vaccination groups each with four animals. Differently mutated Aβ1-42 peptides were used for each group and a 1×PBS (also containing 10% DMSO) as a control group. Initial subcutaneous vaccination began at 100 μg peptide in 100 μl VEHICLE and subsequent booster vaccinations proceeded at 100 μg peptide (100 μl) at two weeks intervals. A third inoculation was carried out with 50 μg peptide in 100 μl.
Bleeding and plasma collection procedures: 10 days after injection, mice were bled by submandibular phlebotomy into EDTA tubes, and plasma was separated by centrifugation at 1500 g for 20 minutes with StatSampler from StatSpin (MA). Plasma were isolated by centrifugation and frozen at −80° C.
Antibody titer determination: Anti-amyloid beta antibody (6E10) was purchased from Signet Laboratories (Dedham, Mass.) and used as positive control. […] Plates were read at 450 nm/630 nm, and samples with readings three times higher than controls were considered positive. […]

[3] = tested on: patients aged 50 to 85 years with probable AD; conditions: with adjuvant QS-21 and polysorbate 80, cited from earlier work

**Q.** With “PFDM: Abeta 1-42 with both Flemish and Dutch mutation, aa16-24 KLVFFGQDV” as the substance, how does the Anti-Abeta antibody isotype (BALB/c mice [1]) read?
**A.** IgG2a response

**Q.** Which Antibody production (mice) does the source give for “DAEFRHDSGYEVHHQKLVFFAQDVGSNKGAIIGLM [Abeta 1-35 carrying Dutch mutation, Aβ 1-35 with Dutch mutation]” here?
**A.** antibody production

**Q.** For “PFM: Abeta 1-42 with Flemish mutation, aa16-24 KLVFFGEDV”, which Anti-Abeta antibody isotype (BALB/c mice [1]) is on record?
**A.** IgG2a response

**Q.** With “Abeta 1-25: Abeta fragment 1-25 [reference compound]” as the substance, how does the Antibody production (mice) read?
**A.** no antibody production

**Q.** What does the source list for “PDM: Abeta 1-42 with Dutch mutation, aa16-24 KLVFFAQDV”?
**A.** Th response by antibody isotyping with adjuvant (BALB/c mice [1]; adjuvant MPL treated vaccine compared to no adjuvant): adjuvant clearly induces a Th1 response; Long term antibody and memory response after boost (BALB/c mice [2]): induce long term antibody response and with a good memory response

**Q.** Which “Occurrence of meningoencephalitis, subset of patients” value ([3]; Phase II) does the source give for “AN1792: wild type amyloid beta 1-42 peptide used as a vaccine with adjuvant QS-21 and polysorbate 80” here?
**A.** 6%

**Q.** What about the “Clinical benefits in follow up study of vaccinated patients” value [3] of the same substance?
**A.** reduced AD-like pathology and improved cognition
